The target of one assay is T1, ClOr2/Orco (Cimex lectularius, UniProt A0A8I6SBL2).
T1 construct: entire coding regions of ClOr2 and ClOrco in pT7Ts, cRNAs co-injected into Xenopus oocytes; heteromeric receptor channel; clusters with Rhodnius RpOr105; with Odorant receptor coreceptor
As to the kind of experiment: two-electrode voltage clamp, Xenopus oocytes. The class given is cell-based.

A further assay deals with T2, ClOr1/Orco (Cimex lectularius, UniProt A0A8I6SE58).
T2 construct: entire coding regions of ClOr1 and ClOrco in pT7Ts, cRNAs co-injected into Xenopus oocytes; heteromeric receptor channel; with Odorant receptor coreceptor
The experiment in a line: two-electrode voltage clamp, Xenopus oocytes. The class given is cell-based.

T2 sequence (A0A8I6SE58 1-379): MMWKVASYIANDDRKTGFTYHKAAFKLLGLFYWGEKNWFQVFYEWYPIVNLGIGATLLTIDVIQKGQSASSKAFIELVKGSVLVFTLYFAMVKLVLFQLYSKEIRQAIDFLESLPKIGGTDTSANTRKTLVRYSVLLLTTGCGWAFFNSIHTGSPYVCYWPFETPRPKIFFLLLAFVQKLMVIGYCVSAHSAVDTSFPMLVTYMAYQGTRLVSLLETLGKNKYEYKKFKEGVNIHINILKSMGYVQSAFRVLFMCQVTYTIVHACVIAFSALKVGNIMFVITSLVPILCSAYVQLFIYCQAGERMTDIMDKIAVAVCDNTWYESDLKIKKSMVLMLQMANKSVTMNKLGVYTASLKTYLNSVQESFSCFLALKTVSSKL
T2 sequence (A0A0A0U7J0 1-451 partner): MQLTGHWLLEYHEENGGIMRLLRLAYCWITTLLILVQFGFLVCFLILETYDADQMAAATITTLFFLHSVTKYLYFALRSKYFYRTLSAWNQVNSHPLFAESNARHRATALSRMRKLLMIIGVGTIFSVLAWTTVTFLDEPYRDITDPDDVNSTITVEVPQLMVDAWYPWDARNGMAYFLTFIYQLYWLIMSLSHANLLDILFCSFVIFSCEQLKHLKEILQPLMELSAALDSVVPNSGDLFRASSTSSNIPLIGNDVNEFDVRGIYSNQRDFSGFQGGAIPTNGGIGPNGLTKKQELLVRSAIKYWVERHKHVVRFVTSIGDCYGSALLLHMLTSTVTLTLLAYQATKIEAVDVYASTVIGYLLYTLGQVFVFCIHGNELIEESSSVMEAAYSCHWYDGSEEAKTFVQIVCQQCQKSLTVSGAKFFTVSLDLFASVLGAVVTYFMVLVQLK
T1 sequence (A0A8I6SBL2 1-382): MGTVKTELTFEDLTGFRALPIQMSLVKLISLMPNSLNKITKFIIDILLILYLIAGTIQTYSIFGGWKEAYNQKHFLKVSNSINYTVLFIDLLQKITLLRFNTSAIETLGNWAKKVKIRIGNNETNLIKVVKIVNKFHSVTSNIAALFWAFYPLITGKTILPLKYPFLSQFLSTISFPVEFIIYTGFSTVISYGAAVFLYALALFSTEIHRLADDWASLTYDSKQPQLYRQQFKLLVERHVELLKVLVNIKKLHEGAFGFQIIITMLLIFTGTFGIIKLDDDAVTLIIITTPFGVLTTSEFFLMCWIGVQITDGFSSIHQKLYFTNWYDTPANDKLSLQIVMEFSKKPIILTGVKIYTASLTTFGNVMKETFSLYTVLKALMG
T1 sequence (A0A0A0U7J0 1-451 partner): as the sequence (A0A0A0U7J0 1-451 partner) above

Regarding `CCCCCCCCCC=O` [decanal], the midpoint of the response on ClOr2/Orco, the EC50, lay at 6.42 µM.
With `CCCCCCCCC=O` [nonanal], a half-maximal response on ClOr1/Orco (EC50) required 0.519 µM.
In the case of `CCCCCCCC=O` [octanal], at ClOr1/Orco, a half-maximal effect (EC50) was put at 3.4 µM.

(Values after PMC4629130, “Human Odorant Reception in the Common Bed Bug, Cimex lectularius” (Scientific Reports, 2015).)
